Test results: article PMC10149208, “A validated HPLC-MS/MS method for simultaneously analyzing curcumin, demethoxycurcumin, bisdemethoxycurcumin, tetra-hydrocurcumin and piperine in human plasma, urine or feces” (Heliyon, 2023)

Experiments:
[1] = Freeze-thaw stability of QC stock solution in DMSO; assay type: physicochemical; conditions: stock 10 μM in DMSO at −20 °C
Method: Freeze-thaw stability of QC stock solution 10 μM at −20 °C was performed with stock solution that had underwent 0, 1 and 10 freeze-thaw cycles. Three samples per freeze-thaw cycle in MeOH:H2O 60%:40% were prepared at 100 nM and measured in duplicate. Four QC samples per concentration were prepared in plasma. Four replicates per sample were frozen for 60 min at −20 °C. All samples were thawed at room temperature and frozen ones (cycle 1). Per four replicates and concentrations the samples were thawed and frozen further a second, third or fourth time. All samples were thawed at the same time for simultaneous assessment with a calibration curve.

[2] = Stability of QC samples in plasma during storage in different conditions; assay type: in vitro ADME, human
[3] = Plasma concentration curve after single oral intake of curcuminoid capsules; assay type: in vivo, human; conditions: three participants, 4 capsules containing 600 mg curcuminoids, versus untreated sample
Method: (§1) One mL TBME was added to the mixture. Feces samples were first diluted 10.000x (four steps of 1:10 dilution) with Bovine Serum Albumin (BSA) 2% in Milli-Q water to reduce matrix effects before 50 μL IS-mix 100uM was added to 100 μL feces dilution. A second 100 μL sample with IS solution was hydrolyzed with 50 μL 20 U/μl β-glucuronidase, vortexed and after this addition incubated for 1 h at 37 °C. Following 1 mL TBME was added. After shaking for 15 min at 480 rpm/min all samples were centrifuged at 18213×g during 1 min. The lower aqueous layer was frozen on dry-iced ethanol and the upper organic layer of approximately 1 mL was decanted into a fresh tube and dried under vacuum using a Speedvac at room temperature. Next, samples were reconstituted with 100 μL MeOH:H2O 60%:40%, vortexed and sonicated for 5 min. After centrifuge at 18213×g during 3 min the supernatant was ready for injection into the HPLC-MS/MS.
(§2) Data from three healthy male participants included from a study researching the bioavailability of curcumin formulations is presented to show the applicability of the method in real-life settings. The participants signed informed consent and followed diet restrictions to avoid any curcumin or piperine intake five days before the visit day to ensure that only curcumin and/or piperine from the curcumin capsules were observed. On the visit day a plasma concentration curve at t = 0, 0.25, 0.50, 0.75, 1, 1.5, 2, 4, 8 and 24 h, collection of 24-h urine and 48-h feces were taken after single oral intake of 4 commercially available soft capsules containing 600 mg curcuminoids (curcumin, demethoxycurcumin and bisdemethoxycurcumin with 95% purity). The trial has been approved by the local institutional ethics committee and has been registered in the Dutch Clinical Trial Register under registration number NL6552. Each individual sample was analyzed according to the method described above.

[4] = 24-h urine concentration after single oral intake of curcuminoid capsules; assay type: in vivo, human; conditions: three participants, 4 capsules containing 600 mg curcuminoids, versus untreated sample
Method: as §1, §2

[5] = 48-h feces concentration after single oral intake of curcuminoid capsules; assay type: in vivo, human; conditions: 4 capsules containing 600 mg curcuminoids
Method: as §1, §2

[6] = parameters: method as in PMID 9619120; conditions: rats; addition of 20 mg/kg piperine; cited from earlier work
[7] = system: retinal pigmented epithelial cells and retinal endothelial cells; parameters: method as in PMID 30013474; conditions: 10 μM; cited from earlier work
SW620 cells = system: SW620 cells; parameters: method as in PMID 33812170; conditions: 10 μM, incubated for 2 days; cited from earlier work
pancreatic cancer = system: pancreatic cancer; parameters: method as in PMID 18628464; conditions: Phase II; cited from earlier work
[8] = QC 10, Room temperature - light
[9] = QC 50, Room temperature - light
[10] = QC 100, Room temperature - dark
[11] = QC 100, Room temperature - light

Molecule | Freeze-thaw stability, concentration relative to nominal ([1]; QC 100 nM 0x thawed) | Freeze-thaw stability, concentration relative to nominal ([1]; QC 100 nM 1x thawed) | Freeze-thaw stability, concentration relative to nominal ([1]; QC 100 nM 10x thawed) | Stability sample during storage ([2]; QC 10, AS (reference)) | Stability sample during storage ([2]; QC 10, On ice - dark) | Stability sample during storage ([2]; QC 10, Room temperature - dark) | Stability sample during storage [2, 8] | Stability sample during storage ([2]; QC 50, AS (reference)) | Stability sample during storage ([2]; QC 50, On ice - dark) | Stability sample during storage ([2]; QC 50, Room temperature - dark) | Stability sample during storage [2, 9] | Stability sample during storage ([2]; QC 100, AS (reference)) | Stability sample during storage ([2]; QC 100, On ice - dark) | Stability sample during storage [2, 10] | Stability sample during storage [2, 11] | Plasma peak concentrations after treatment with β-glucuronidase [3] | Urine concentrations after treatment with β-glucuronidase [4] | Percentage in feces of the total expected dosage [5] | other results
O=C(/C=C/c1ccc(O)cc1)CC(=O)/C=C/c1ccc(O)cc1 [Bisdemethoxy-curcumin, bisdemethoxycurcumin] | 100% | 100.7% | 97.1% | 100% | 90% | 95% | 88% | 100% | 90% | 92% | 89% | 100% | 84% | 84% | 82% | increase | increase | 13% | 
O=C(/C=C/C=C/c1ccc2c(c1)OCO2)N1CCCCC1 [Piperine-135, piperine] | 100% | 101.8% | 101.7% | 100% | 77% | 78% | 77% | 100% | 90% | 85% | 90% | 100% | 89% | 85% | 85% |  |  |  | Increase of bioavailability of curcumin [6]: 154%
COc1cc(CCC(=O)CC(=O)CCc2ccc(O)c(OC)c2)ccc1O [Tetrahydrocurcumin] | 100% | 101.0% | 100.0% | 100% | 96% | 89% | 88% | 100% | 99% | 93% | 93% | 100% | 94% | 88% | 87% | increase | increase |  | Presence in feces [5]: No tetrahydrocurcumin was found
demethoxycurcumin [Demethoxy-curcumin] | 100% | 102.2% | 103.1% | 100% | 93% | 95% | 87% | 100% | 96% | 100% | 93% | 100% | 91% | 95% | 89% | increase | increase | 24.7% | 
COc1cc(/C=C/C(=O)CC(=O)/C=C/c2ccc(O)c(OC)c2)ccc1O [Curcumin, curcumin] | 100% | 99.8% | 96.8% | 100% | 76% | 83% | 82% | 100% | 89% | 94% | 91% | 100% | 87% | 90% | 89% | increase | increase | roughly 21.7% | ROS concentration [7]: decrease; TNF-α release [7]: decrease; Phosphorylation levels of ERK and STAT1 (SW620 cells): significantly downregulated; Anecdotal beneficial effect, treated patients (pancreatic cancer): two out of 21
